Source: US20240269304A1, “BCL-XL INHIBITOR ANTIBODY-DRUG CONJUGATES AND METHODS OF USE THEREOF” (Novartis AG, priority 2020, published 2024)
Read-outs that look alike come from different tables or passages of the source.

Experiments:
H1650 cells = assay: CellTiterGlo (CTG) cell viability, 3D, 120 h, H1650 (Example 8); type: cell-based, human
[1] = ADC stability study: % aggregates by SEC after incubation at 37° C. for 168 h; type: physicochemical
Protocol: Size Exclusion Chromatography: Size exclusion chromatography (SEC) was performed for quality control of each ADCs by measuring monomer percentage of the conjugate. The analysis was performed on analytical column Superdex 200 Increase 5/150 GL (GE Healthcare, 28990945) in isocratic conditions 100% PBS pH7.4 (Sigma Life Science, P3813, 10PAK), flow 0.45 mI/min for 12 minutes. The % aggregate fraction of the conjugate sample was quantified based on the peak area absorbance at 280 nm. Its calculation was based on the ratio between the high molecular weight eluent at 280 nm divided by the sum of peak area absorbance at the same wavelength of the high molecular weight and monomeric eluents multiplied by 100.
Characterization of the exemplary ADCs is summarized in Table 13 (coupling, LC-MS method, OAR, aggregation status, ADO stability and yield). The average OAR values were determined using the above LC-MS methods and the percentage of aggregates was measured by size exclusion chromatography (SEC) during the quality control of the ADO and after the stability study (incubation at 37° C. for 168 h).

DND-41 cells = assay: CellTiterGlo (CTG) cell viability, 72 h, DND-41 (Example 8); type: cell-based
Protocol: DND-41 cells were cultivated in RPMI supplemented with 10% heat inactivated fetal bovine serum, penicillin (100 IU/ml), streptomycin (100 μg/ml) and L-glutamine (2 mM). Cell lines were cultured at 37° C. in a humidified atmosphere containing 5% CO2. […] Effects of payloads or ADCs on cell viability were assessed after 3 days of incubation at 37° C./5% CO2 by quantification of cellular ATP levels using CellTiterGlo at 75 μL reagent/well. All the conditions were tested in triplicates. Luminescence was quantified on a multipurpose plate reader. IC50s were calculated using standard four-parametric curve fitting.

ALL-SIL cells = assay: CellTiterGlo (CTG) cell viability, 72 h, ALL-SIL (Example 8); type: cell-based
Protocol: ALL-SIL cells were cultivated in RPMI supplemented with 20% heat inactivated fetal bovine serum, penicillin (100 IU/ml), streptomycin (100 μg/ml) and L-glutamine (2 mM). Cell lines were cultured at 37° C. in a humidified atmosphere containing 5% CO2. Cells were seeded in 96 well clear bottom plates (96 well clear-bottom, white, Corning reference 3903) and exposed to the payloads or ADCs for 72 h (serially diluted; 9 concentrations each, triplicates). Effects of payloads or ADCs on cell viability were assessed after 3 days of incubation at 37° C./5% CO2 by quantification of cellular ATP levels using CellTiterGlo at 75 μL reagent/well. All the conditions were tested in triplicates. Luminescence was quantified on a multipurpose plate reader. IC50s were calculated using standard four-parametric curve fitting. […] Each experiment was performed at least twice, with results being reproducible.

[2] = H1650 3D, experiment n1, read-out: H1650 3D CTG IC50 n1
[3] = H1650 3D, experiment n2, read-out: H1650 3D CTG IC50 n2
[4] = H1650 3D, mean of n1 and n2, read-out: H1650 3D CTG IC50 Mean of n1 and n2
[5] = DND41, experiment n1, read-out: DND41 CTG 72 h IC50 nM n1
[6] = DND41, experiment n2, read-out: DND41 CTG 72 h IC50 nM n2
[7] = DND41, mean of n1 and n2, read-out: DND41 CTG 72 h IC50 nM Mean of n1 and n2
[8] = Homo sapiens, NCI-H1650, H1650 3D, experiment n1, read-out: H1650 3D CTG IC50 n1
[9] = Homo sapiens, NCI-H1650, H1650 3D, experiment n2, read-out: H1650 3D CTG IC50 n2
[10] = Homo sapiens, NCI-H1650, H1650 3D, mean of n1 and n2, read-out: H1650 3D CTG IC50 Mean of n1 and n2
[11] = experiment n2, read-out: ALLSIL CTG 72 h IC50 nM n2
[12] = mean of n1 and n2, read-out: ALLSIL CTG 72 h IC50 nM Mean of n1 and n2
[13] = experiment n1, read-out: ALLSIL CTG 72 h IC50 nM n1

| SMILES | IC50 (H1650 cells; [2]) [nM] | IC50 (H1650 cells; [3]) [nM] | IC50 (H1650 cells; [4]) [nM] | Stab w1 +37° C. % Agg (by SEC) [1] [%] | IC50 (DND-41 cells; [5]) [nM] | IC50 (DND-41 cells; [6]) [nM] | IC50 (DND-41 cells; [7]) [nM] | IC50 (H1650 cells; [8]) [nM] | IC50 (H1650 cells; [9]) [nM] | IC50 (H1650 cells; [10]) [nM] | ALLSIL CTG 72 h IC50 nM n1 (ALL-SIL cells; experiment n1) | IC50 (ALL-SIL cells; [11]) [nM] | IC50 (ALL-SIL cells; [12]) [nM] | IC50 (ALL-SIL cells; [13]) [nM] |
| --- | --- | --- | --- | --- | --- | --- | --- | --- | --- | --- | --- | --- | --- | --- |
| Cc1cc(N(C)c2ccc(-c3cnn(C[C@]45C[C@]6(C)C[C@](C)(C4)C[C@@](OCCN(CCCO)C(=O)OCc4ccc(NC(=O)[C@H](CCCNC(N)=O)CC(=O)[C@@H](NC(=O)CCOCCN7C(=O)CC(C)C7=O)C(C)C)cc4)(C6)C5)c3C)c(C(=O)O)n2)nnc1Nc1nc2ccccc2s1 (mixture of isomers) [Ab C - L9C-P26] | 0.12 | 0.11 | 0.12 | 3 |  |  |  |  |  |  |  |  |  |  |
| Cc1c(Nc2nc3ccccc3s2)nnc2c1CCCN2c1nc(C(=O)[O-])c(CCCOc2ccc(C#CC[N+](C)(C)Cc3ccc(NC(=O)[C@H](CCCNC(N)=O)NC(=O)[C@@H](NC(=O)CCOCCN4C(=O)CC(C)C4=O)C(C)C)cc3)cc2F)[nH]1 (some centres unmarked) [Ab C - L9A-P1] | 0.49 | 0.33 | 0.41 | 6 |  |  |  |  |  |  |  |  |  |  |
| Cc1c(Nc2nc3ccccc3s2)nnc2c1CCCN2c1nc(C(=O)[O-])c(CCCOc2ccc(C#CC(C)N3CC[N+](C)(Cc4ccc(NC(=O)[C@H](CCCNC(N)=O)NC(=O)[C@@H](NC(=O)CCOCCN5C(=O)CC(C)C5=O)C(C)C)cc4)CC3)cc2F)s1 (some centres unmarked) [Ab C - L9A-P8] | 0.14 | 0.3 | 0.22 | 7 |  |  |  |  |  |  |  |  |  |  |
| Cc1cc(N(C)c2nc(C(=O)[O-])c(CCCOc3ccc(C#CC(C)[N+](C)(C)Cc4ccc(NC(=O)[C@H](CCCNC(N)=O)NC(=O)[C@@H](NC(=O)CCOCCN5C(=O)CC(C)C5=O)C(C)C)cc4)cc3F)s2)nnc1Nc1nc2ccccc2s1 (some centres unmarked) [Ab C - L9A-P11] | 0.5 | 0.5 | 0.5 | 2.4 |  |  |  |  |  |  |  |  |  |  |
| CC[N+](C)(CC#Cc1ccc(OCCCc2sc(N3CCCc4c3nnc(Nc3nc5ccccc5s3)c4C)nc2C(=O)O)c(F)c1)Cc1ccc(NC(=O)[C@H](CCCNC(N)=O)NC(=O)[C@@H](NC(=O)CCOCCN2C(=O)CC(C)C2=O)C(C)C)cc1 (some centres unmarked) [Ab C - L9A-P13] | 0.9 | 0.7 | 0.8 | 0.2 |  |  |  |  |  |  |  |  |  |  |
| CC[N+](CC)(CC#Cc1ccc(OCCCc2sc(N3CCCc4c3nnc(Nc3nc5ccccc5s3)c4C)nc2C(=O)[O-])c(F)c1)Cc1ccc(NC(=O)[C@H](CCCNC(N)=O)NC(=O)[C@@H](NC(=O)CCOCCN2C(=O)CC(C)C2=O)C(C)C)cc1 (some centres unmarked) [Ab C - L9A-P14] | 1.3 | 0.4 | 0.85 | 7 |  |  |  |  |  |  |  |  |  |  |
| Cc1c(NC2Nc3ccccc3S2)nnc2c1CCCN2c1nc(C(=O)[O-])c(CCCOc2ccc(C#CC[N+]3(Cc4ccc(NC(=O)[C@H](CCCNC(N)=O)NC(=O)[C@@H](NC(=O)CCCCCN5C(=O)CC(C)C5=O)C(C)C)cc4)CCCCC3)cc2F)s1 (some centres unmarked) [Ab C - L9A-P18] | 1.2 | 1.25 | 1.23 | 3 |  |  |  |  |  |  |  |  |  |  |
| C=C(C)CCCC[C@](C)(CC(=C)[C@@](C)(CC(=C)CCCCCC1C(=C)CC(C)C1=C)C(C)C)C(=C)Cc1ccc(CC(C)(C)CCC[C@]23C[C@]4(C)C[C@](C)(C2)C[C@@](CC2C=CC(c5ccc(C6CCCc7c6ccc(CC6=Cc8ccccc8C6)c7C)cc5C(=C)C)=C2C)(C4)C3)cc1 (some centres unmarked) [Ab C - L9A-P27] | 0.3 | 0.22 | 0.26 | 16 |  |  |  |  |  |  |  |  |  |  |
| Cc1c(Nc2nc3ccccc3s2)nnc2c1CCCN2c1nc(C(=O)O)c(CCCOc2ccc(C#CCN3CCN(C)CC3)cc2F)s1 [P10, 2-[3-(1,3-Benzothiazol-2-ylamino)-4-methyl-6,7-dihydro-5H-pyrido[2,3-c]pyridazin-8-yl]-5-[3-[2-fluoro-4-[3-(4-methylpiperazin-1-yl)prop-1-ynyl]phenoxy]propyl] thiazole-4-carboxylic acid] |  |  |  |  | 0.2 | 0.29 | 0.25 | 0.3 | 0.8 | 0.55 | <Cmin | 0.01 | 0.01 |  |
| CCN(C)CC#Cc1ccc(OCCCc2sc(N3CCCc4c3nnc(Nc3nc5ccccc5s3)c4C)nc2C(=O)O)c(F)c1 [P13, 2-[3-(1,3-Benzothiazol-2-ylamino)-4-methyl-6,7-dihydro-5H-pyrido[2,3-c]pyridazin-8-yl]-5-[3-[4-[3-[ethyl(methyl)amino]prop-1-ynyl]-2-fluoro-phenoxy]propyl]thiazole-4-carboxylic acid] |  |  |  |  | 11.8 | 12.1 | 11.9 | 1.8 | 3 | 2.4 |  | 1.44 | 2.02 | 2.6 |
| Cc1c(Nc2nc3ccccc3s2)nnc2c1CCCN2c1nc(C(=O)O)c(CCCOc2ccc(C#CCN3CCNCC3)cc2F)s1 [P17, 2-[3-(1,3-Benzothiazol-2-ylamino)-4-methyl-6,7-dihydro-5H-pyrido[2,3-c]pyridazin-8-yl]-5-[3-[2-fluoro-4-(3-piperazin-1-ylprop-1-ynyl)phenoxy]propyl]thiazole-4-carboxylic acid] |  |  |  |  | 0.4 | 0.7 | 0.55 | 3.15 | 5.3 | 4.23 |  | 0.26 | 0.2 | 0.13 |
| Cc1c(Nc2nc3ccccc3s2)nnc2c1CCCN2c1ccc(-c2cnn(C[C@]34C[C@]5(C)C[C@](C)(C3)C[C@@](OCCNCC[C@H](O)CO)(C5)C4)c2C)c(C(=O)O)n1 [P19, 6-{3-[(1,3-benzothiazol-2-yl)amino]-4-methyl-6,7-dihydropyrido[2,3-c]pyridazin-8(5H)-yl}-3-(1-{[3-(2-{[(3S)-3,4-dihydroxybutyl]amino}ethoxy)-5,7-dimethyladamantan-1-yl]methyl}-5-methyl-1H-pyrazol-4-yl)pyridine-2-carboxylic acid] |  |  |  |  | 10.8 | 7.2 | 9 | 2.89 | 1.43 | 2.16 |  | 3.5 | 3.76 | 4.02 |
| Cc1c(Nc2nc3ccccc3s2)nnc2c1CCCN2c1ccc(-c2cnn(CC34CC5(C)CC(C)(C3)CC(OCCN3CCN(C)CC3)(C5)C4)c2C)c(C(=O)O)n1 [P20, 6-[3-(1,3-benzothiazol-2-ylamino)-4-methyl-6,7-dihydro-5H-pyrido[2,3-c]pyridazin-8-yl]-3-[1-[[3,5-dimethyl-7-[2-(4-methylpiperazin-1-yl)ethoxy]-1-adamantyl]methyl]-5-methyl-pyrazol-4-yl]pyridine-2-carboxylic acid] |  |  |  |  | 0.38 | 0.24 | 0.31 | 0.36 | 0.5 | 0.43 |  | 0.08 | 0.05 | 0.02 |
| Cc1c(Nc2nc3ccccc3s2)nnc2c1CCCN2c1ccc(-c2cnn(C[C@]34C[C@]5(C)C[C@](C)(C3)C[C@@](OCCNCCCCO)(C5)C4)c2C)c(C(=O)O)n1 [P22, 6-[3-(1,3-benzothiazol-2-ylamino)-4-methyl-6,7-dihydro-5H-pyrido[2,3-c]pyridazin-8-yl]-3-[1-[[3-[2-(4-hydroxybutylamino)ethoxy]-5,7-dimethyl-1-adamantyl]methyl]-5-methyl-pyrazol-4-yl]pyridine-2-carboxylic acid] |  |  |  |  | 0.45 | 0.26 | 0.36 | 0.77 | 0.79 | 0.78 |  | 0.5 | 0.38 | 0.26 |
